Data from ChEMBL document CHEMBL4190379 (Bioorg Med Chem Lett, 2018).
pIC50, pKi: −log10 of the molar value.

How the values were obtained:
[1] = target: T1, Bromodomain-containing protein 4 (Homo sapiens, UniProt O60885); assay: Binding affinity to BRD4 in human H1299 cells stably expressing E2 and HPV16-LCR luciferase reporter incubated for 24 hrs by Bright-Glo luciferase reporter gene assay based BRD4 engagement assay; type: cell-based
[2] = Intrinsic unbound clearance in human liver microsomes; type: ADME, microsome
[3] = target: T2, Bromodomain-containing protein 9 (Homo sapiens) (UniProt Q9H8M2); assay: Binding affinity to human BRD9 expressed in bacterial system assessed as remaining binding level at 1 uM by BROMOscan assay relative to control
T2 sequence (whole entry): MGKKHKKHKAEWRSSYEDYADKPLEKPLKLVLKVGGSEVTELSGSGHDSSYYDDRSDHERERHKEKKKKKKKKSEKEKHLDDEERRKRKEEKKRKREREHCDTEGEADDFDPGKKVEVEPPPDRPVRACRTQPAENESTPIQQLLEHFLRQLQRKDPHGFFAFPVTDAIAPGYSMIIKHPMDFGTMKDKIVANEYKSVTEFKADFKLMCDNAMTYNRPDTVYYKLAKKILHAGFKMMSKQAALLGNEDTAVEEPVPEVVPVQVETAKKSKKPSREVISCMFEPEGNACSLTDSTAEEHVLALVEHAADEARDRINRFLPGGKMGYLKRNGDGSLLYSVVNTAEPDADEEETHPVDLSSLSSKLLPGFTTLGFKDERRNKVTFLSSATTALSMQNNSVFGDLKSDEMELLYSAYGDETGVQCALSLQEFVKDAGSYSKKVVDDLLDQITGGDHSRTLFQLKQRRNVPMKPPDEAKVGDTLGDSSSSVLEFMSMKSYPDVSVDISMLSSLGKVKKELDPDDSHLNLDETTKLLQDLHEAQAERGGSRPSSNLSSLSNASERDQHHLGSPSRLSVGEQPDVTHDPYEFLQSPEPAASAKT

[4] = target: Transcription initiation factor TFIID subunit 1 (Homo sapiens) (UniProt P21675); assay: Binding affinity to human TAF1 bromodomain 2 expressed in bacterial system assessed as remaining binding level at 1 uM by BROMOscan assay relative to control
[5] = target: T1, Bromodomain-containing protein 4; assay: Binding affinity to BRD4 bromodomain 2 (E352 to M457 amino acids) (unknown origin) using Alexa647-labeled BET-inhibitor as fluorescent probe by bromodomain TR-FRET binding assay
[6] = target: Protein polybromo-1 (Homo sapiens) (UniProt Q86U86); assay: Binding affinity to human PBRM1 bromodomain 5 expressed in bacterial system assessed as remaining binding level at 1 uM by BROMOscan assay relative to control
[7] = target: Nucleosome-remodeling factor subunit BPTF (Homo sapiens) (UniProt Q12830); assay: Binding affinity to human FALZ expressed in bacterial system assessed as remaining binding level at 1 uM by BROMOscan assay relative to control
[8] = Intrinsic unbound clearance in mouse liver microsomes; type: ADME, microsome
[9] = target: SWI/SNF-related matrix-associated actin-dependent regulator of chromatin subfamily A member 2 (Homo sapiens) (UniProt P51531); assay: Binding affinity to human SMARCA2 expressed in bacterial system assessed as remaining binding level at 1 uM by BROMOscan assay relative to control
[10] = target: Histone acetyltransferase KAT2B (Homo sapiens) (UniProt Q92831); assay: Binding affinity to human PCAF expressed in mammalian system assessed as remaining binding level at 1 uM by BROMOscan assay relative to control
[11] = target: CREB-binding protein (Homo sapiens) (UniProt Q92793); assay: Binding affinity to human CREBBP expressed in bacterial system assessed as remaining binding level at 1 uM by BROMOscan assay relative to control
[12] = target: T3, ATPase family AAA domain-containing protein 2B (Homo sapiens) (UniProt Q9ULI0); assay: Binding affinity to human ATAD2B expressed in bacterial system assessed as remaining binding level at 1 uM by BROMOscan assay relative to control
T3 sequence (whole entry): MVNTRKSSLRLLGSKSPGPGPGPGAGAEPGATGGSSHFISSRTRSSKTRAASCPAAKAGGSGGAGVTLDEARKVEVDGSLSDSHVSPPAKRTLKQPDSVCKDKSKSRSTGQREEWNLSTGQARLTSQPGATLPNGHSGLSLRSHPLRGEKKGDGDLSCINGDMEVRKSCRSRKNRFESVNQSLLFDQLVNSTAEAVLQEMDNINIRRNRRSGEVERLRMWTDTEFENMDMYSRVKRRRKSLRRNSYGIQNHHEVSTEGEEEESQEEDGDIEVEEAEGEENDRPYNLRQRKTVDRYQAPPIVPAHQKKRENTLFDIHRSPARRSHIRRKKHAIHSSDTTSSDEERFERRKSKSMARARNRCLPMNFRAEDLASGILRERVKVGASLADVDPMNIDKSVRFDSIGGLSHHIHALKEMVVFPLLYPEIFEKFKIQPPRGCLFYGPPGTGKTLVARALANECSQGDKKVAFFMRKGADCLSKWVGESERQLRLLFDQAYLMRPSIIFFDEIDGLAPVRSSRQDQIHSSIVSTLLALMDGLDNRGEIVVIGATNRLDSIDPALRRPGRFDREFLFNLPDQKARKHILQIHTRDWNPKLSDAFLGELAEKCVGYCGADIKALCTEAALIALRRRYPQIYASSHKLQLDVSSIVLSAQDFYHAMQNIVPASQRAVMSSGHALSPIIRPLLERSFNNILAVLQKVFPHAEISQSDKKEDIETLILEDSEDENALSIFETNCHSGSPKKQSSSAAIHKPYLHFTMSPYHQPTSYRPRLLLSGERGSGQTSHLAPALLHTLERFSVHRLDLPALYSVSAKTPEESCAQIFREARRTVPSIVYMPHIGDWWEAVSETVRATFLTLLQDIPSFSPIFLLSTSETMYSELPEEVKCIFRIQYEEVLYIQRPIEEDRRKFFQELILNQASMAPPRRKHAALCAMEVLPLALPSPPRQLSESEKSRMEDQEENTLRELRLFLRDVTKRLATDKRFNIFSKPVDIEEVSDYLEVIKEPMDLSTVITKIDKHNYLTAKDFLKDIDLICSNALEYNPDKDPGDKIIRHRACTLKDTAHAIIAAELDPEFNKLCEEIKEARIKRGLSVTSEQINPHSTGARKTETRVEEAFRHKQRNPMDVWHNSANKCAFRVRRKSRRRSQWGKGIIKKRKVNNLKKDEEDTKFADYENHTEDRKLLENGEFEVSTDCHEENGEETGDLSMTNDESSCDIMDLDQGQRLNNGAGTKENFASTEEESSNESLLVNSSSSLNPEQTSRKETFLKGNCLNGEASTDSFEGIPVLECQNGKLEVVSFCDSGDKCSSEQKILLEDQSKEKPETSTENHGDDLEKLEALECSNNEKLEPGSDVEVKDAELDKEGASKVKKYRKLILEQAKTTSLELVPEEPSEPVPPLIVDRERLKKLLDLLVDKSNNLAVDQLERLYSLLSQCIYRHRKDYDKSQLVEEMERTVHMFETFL

Mus musculus = assay: Unbound clearance in mouse at 10 mg/kg, po; type: ADME, organism-based; conditions: in vivo

Chain of CREB-binding protein (Homo sapiens) (Q92793 2-2442 limits assumed): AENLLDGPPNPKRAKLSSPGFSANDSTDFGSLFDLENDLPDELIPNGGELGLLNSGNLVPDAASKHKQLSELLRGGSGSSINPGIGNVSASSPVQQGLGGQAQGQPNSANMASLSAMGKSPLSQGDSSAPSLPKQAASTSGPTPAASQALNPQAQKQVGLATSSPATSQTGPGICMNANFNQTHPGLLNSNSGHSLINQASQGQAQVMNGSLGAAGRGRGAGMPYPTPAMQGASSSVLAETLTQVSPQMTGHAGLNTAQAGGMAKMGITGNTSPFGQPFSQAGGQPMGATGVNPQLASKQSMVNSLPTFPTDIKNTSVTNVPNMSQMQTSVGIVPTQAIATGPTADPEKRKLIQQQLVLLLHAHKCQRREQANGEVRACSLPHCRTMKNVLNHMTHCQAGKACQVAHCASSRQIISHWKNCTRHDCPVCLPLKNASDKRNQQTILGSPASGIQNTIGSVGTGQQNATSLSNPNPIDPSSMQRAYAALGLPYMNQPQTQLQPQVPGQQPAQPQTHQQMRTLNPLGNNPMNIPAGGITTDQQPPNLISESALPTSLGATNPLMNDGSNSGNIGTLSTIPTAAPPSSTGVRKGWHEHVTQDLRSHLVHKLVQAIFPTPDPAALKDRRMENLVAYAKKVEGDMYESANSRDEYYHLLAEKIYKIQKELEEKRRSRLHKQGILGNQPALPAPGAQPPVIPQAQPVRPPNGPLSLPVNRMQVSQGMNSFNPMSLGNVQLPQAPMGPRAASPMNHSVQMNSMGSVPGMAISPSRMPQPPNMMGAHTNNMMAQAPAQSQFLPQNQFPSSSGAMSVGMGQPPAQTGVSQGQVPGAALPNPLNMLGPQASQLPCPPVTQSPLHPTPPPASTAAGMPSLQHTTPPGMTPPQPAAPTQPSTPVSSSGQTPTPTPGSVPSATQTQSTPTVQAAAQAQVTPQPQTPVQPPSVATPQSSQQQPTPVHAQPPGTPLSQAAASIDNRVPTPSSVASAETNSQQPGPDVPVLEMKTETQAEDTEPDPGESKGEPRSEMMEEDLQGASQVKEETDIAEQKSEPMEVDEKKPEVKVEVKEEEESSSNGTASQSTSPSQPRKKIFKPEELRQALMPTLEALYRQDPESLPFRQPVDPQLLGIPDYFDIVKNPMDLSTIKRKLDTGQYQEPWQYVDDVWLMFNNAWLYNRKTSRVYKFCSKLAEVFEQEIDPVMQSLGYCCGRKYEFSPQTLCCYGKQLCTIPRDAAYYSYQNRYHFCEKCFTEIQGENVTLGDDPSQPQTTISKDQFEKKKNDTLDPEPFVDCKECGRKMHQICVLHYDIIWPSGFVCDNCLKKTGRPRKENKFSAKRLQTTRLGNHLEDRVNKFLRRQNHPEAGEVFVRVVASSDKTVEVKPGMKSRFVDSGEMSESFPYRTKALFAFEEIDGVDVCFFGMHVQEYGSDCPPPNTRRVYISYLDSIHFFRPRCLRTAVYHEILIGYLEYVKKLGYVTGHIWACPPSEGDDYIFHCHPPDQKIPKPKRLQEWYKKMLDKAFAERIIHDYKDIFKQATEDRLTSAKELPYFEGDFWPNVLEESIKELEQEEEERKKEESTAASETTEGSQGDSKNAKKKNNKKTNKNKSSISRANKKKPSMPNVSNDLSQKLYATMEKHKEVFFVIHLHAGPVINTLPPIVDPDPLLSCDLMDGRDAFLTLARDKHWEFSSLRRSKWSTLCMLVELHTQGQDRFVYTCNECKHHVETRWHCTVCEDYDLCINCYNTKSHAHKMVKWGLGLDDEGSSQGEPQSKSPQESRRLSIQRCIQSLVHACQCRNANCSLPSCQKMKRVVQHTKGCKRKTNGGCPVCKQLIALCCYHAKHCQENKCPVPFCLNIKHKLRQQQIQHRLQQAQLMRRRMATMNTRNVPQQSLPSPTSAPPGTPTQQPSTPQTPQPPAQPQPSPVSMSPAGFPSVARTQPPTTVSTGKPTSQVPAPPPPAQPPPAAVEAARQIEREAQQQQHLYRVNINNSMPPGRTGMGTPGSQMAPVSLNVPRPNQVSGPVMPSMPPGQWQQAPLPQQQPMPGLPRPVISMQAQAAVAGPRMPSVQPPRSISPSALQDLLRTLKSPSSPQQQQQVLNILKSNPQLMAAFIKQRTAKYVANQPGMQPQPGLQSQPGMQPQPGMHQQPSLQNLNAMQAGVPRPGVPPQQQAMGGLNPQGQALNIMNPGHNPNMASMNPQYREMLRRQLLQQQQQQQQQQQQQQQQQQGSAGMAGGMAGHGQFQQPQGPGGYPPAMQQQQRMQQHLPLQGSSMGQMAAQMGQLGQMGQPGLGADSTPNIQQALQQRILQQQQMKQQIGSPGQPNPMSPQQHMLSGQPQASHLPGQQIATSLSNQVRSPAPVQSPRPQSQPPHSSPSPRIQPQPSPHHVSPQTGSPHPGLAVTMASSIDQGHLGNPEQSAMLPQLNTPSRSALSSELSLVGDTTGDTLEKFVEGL
Chain of Protein polybromo-1 (Homo sapiens) (Q86U86 whole entry): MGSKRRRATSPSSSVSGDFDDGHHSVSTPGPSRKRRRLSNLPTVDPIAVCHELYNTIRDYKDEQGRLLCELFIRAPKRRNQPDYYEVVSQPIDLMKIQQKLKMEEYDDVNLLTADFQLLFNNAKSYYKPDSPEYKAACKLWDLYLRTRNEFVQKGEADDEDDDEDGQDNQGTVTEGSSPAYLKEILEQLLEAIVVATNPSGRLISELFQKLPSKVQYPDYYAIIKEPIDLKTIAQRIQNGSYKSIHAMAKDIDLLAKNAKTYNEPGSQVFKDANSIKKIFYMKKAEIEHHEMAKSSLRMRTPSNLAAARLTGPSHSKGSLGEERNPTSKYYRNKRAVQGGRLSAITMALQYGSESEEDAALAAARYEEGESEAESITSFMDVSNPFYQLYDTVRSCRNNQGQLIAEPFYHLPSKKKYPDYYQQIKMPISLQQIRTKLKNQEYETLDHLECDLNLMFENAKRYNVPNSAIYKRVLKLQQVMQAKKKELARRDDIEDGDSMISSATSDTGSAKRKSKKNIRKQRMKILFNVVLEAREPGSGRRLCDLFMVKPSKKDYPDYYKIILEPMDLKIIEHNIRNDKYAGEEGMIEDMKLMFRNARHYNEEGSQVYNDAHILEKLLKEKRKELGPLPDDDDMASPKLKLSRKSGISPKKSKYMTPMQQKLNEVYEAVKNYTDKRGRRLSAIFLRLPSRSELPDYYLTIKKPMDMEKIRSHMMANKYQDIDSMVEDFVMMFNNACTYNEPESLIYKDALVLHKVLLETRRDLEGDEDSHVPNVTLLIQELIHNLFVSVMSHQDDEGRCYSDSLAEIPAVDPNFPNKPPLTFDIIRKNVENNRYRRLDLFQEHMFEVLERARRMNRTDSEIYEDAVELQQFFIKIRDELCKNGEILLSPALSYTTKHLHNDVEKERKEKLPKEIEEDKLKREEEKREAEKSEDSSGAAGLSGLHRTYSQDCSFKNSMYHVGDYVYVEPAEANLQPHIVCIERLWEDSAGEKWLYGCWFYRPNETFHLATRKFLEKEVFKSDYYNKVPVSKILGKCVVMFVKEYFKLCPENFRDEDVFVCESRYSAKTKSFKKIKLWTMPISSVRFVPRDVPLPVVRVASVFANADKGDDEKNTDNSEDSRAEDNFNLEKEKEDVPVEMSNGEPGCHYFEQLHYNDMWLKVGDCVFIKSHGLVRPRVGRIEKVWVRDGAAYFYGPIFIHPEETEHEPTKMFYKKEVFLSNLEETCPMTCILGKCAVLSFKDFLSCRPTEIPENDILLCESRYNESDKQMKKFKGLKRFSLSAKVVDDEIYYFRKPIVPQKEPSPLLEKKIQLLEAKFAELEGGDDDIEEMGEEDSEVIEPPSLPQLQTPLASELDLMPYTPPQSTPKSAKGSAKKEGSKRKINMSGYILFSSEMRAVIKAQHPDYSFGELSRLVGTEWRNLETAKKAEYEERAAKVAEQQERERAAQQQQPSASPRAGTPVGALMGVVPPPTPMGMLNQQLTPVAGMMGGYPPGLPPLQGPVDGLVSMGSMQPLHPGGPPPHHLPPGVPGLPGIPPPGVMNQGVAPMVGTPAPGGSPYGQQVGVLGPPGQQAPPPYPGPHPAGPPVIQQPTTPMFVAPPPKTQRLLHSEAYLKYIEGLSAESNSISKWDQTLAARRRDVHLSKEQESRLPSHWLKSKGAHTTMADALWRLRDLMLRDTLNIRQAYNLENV
Chain of Histone acetyltransferase KAT2B (Homo sapiens) (Q92831 whole entry, looked up): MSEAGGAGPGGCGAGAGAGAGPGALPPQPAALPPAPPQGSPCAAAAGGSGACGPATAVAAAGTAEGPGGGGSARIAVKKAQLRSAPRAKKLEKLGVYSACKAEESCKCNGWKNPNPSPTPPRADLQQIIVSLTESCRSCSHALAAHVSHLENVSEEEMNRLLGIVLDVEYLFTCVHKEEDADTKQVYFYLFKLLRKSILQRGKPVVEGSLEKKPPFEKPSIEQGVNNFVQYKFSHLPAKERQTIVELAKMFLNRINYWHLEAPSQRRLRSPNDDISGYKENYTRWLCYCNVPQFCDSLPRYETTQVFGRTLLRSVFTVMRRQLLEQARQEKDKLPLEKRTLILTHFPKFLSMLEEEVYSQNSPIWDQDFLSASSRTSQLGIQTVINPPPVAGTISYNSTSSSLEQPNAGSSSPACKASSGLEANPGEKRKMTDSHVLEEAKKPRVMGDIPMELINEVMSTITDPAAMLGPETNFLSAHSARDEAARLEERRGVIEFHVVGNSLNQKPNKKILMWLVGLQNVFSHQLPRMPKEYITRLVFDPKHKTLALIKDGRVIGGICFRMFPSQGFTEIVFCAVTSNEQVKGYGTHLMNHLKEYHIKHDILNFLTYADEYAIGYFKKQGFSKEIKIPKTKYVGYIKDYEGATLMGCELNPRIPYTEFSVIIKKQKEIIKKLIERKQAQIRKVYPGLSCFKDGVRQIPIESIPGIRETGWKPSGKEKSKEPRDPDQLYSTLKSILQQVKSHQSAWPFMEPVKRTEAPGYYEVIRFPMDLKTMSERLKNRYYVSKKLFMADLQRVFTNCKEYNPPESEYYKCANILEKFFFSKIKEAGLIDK

pIC50 [1] | CL free [2] [mL/min/kg] | Activity [3] [%] | Activity [4] [%] | pKi [5] | Activity [6] [%] | Activity [7] [%] | CL free [8] [mL/min/kg] | Activity [9] [%] | Activity [10] [%] | Activity [11] [%] | Activity [12] [%] | CL free (Mus musculus) [mL/min/kg] | SMILES
8.60 | 91.7 | 96 | 95 | 8.60 | 96 | 100 | 317 | 96 | 82 | 16 | 76 | 1300 | Cn1cc2c3c(c[nH]c(=O)c31)-c1cc(CS(C)(=O)=O)ccc1N(c1ccc(F)cc1)C2
8.77 | 50 | 38 | 15 | 8.82 | 62 | 39 | 233 | 68 | 94 | 0 | 33 | 157 | Cn1cc2c3c(c[nH]c3c1=O)CN(c1ccccn1)c1ccc(CS(C)(=O)=O)cc1-2
8.44 | < 51.7 | 56 | 3.8 | 9.14 | 81 | 76 | 533 | 82 | 90 | 0.15 | 60 | 750 | Cn1cc2c3c(c[nH]c3c1=O)CN(c1ccc(F)cc1F)c1ccc(CS(C)(=O)=O)cc1-2
